Laboratory results: patent publication US20200375987A1, “METALLO-BETA-LACTAMASE INHIBITORS AND METHODS OF USE THEREOF” (priority 2018, published 2020)

Experiments:
NDM-1 = NDM-1 (Klebsiella pneumoniae, UniProt C7C422); test: Enzyme activity: determination of IC50, fluorescence assay with CCF2-FA substrate (NDM-1); type: biochemical; conditions: 1 pM enzyme, 1.25 μM CCF2-FA, 2 hours at 25° C.; read-out: NDM1 IC50
Description: (§1) The Class B enzyme activities were measured in the presence of the test inhibitor in a fluorescence assay against a commercially available substrate consisting of a cephalosporin core linking 7-hydroxycoumarin to fluorescein (CCF2-FA). The enzyme (NDM-1, IMP-1 or VIM-1) and the substrate were diluted in 100 mM KH2PO4 buffer (pH 7) containing 0.005% Tween-20 and 10 μM ZnSO4. In the assay, the final concentration of enzyme was 1 pM, 2 pM and 30 pM for NDM-1, IMP-1 and VIM-1, respectively, and the final concentration of CCF2-FA was 1.25 μM. The test inhibitor was dissolved in dimethylsulfoxide and diluted 1:50 in the assay, resulting in a final concentration range of 20 μM to 0.00063 μM. In a 384-well microplate, the test inhibitor was incubated with the metallo-β-lactamase enzyme and the substrate for 2 hours at 25° C. Fluorescence at 460 nm following excitation at 405 nm was measured. The IC50 value was determined from semi-logarithmic plots of enzyme inhibition versus inhibitor concentration, with a curve generated using a 4-parameter fit.

IMP-1 = IMP-1 (Serratia marcescens, UniProt P52699); test: Enzyme activity: determination of IC50, fluorescence assay with CCF2-FA substrate (IMP-1); type: biochemical; conditions: 2 pM enzyme, 1.25 μM CCF2-FA, 2 hours at 25° C.; read-out: IMP1 IC50
Description: as §1

VIM-1 = VIM-1 (Pseudomonas aeruginosa, UniProt A0A0F7KYQ8); test: Enzyme activity: determination of IC50, fluorescence assay with CCF2-FA substrate (VIM-1); type: biochemical; conditions: 30 pM enzyme, 1.25 μM CCF2-FA, 2 hours at 25° C.; read-out: VIM1 IC50
Description: as §1

VIM-2 = VIM-2 (Escherichia coli, UniProt Q5U7L7); test: Enzyme activity: determination of IC50 (VIM-2); type: biochemical; conditions: read-out: VIM2 IC50
[1] = tested on: Escherichia coli expressing NDM-1 (CLB30016); test: Antibiotic potentiation activity: synergistic concentration (MITC95) with imipenem; type: cell-based; conditions: imipenem 1 μg/mL; lowest concentration inhibiting 95% of growth; 35° C., 22-24 hours
Description: (§2) The bacterial strains tested included the clinical strains Escherichia coli expressing NDM-1 (CLB30005, CLB30016), Serratia marcescens expressing IMP-1 (CL5741), and Klebsiella pneumoniae expressing VIM-1 (IHMA599644). Inhibitor activity was measured in the presence and absence of imipenem in a 384-well microplate.
(§3) The clinical strains CLB30016, CL5741 and IHMA599644 were grown on trypticase soy agar containing 5% sheep's blood. The bacteria on agar plates were incubated at 35° C. with humidity overnight. The following day, individual colonies from each clinical strain were picked and resuspended in 5 mL saline to attain an OD600 of 0.14, 0.11, 0.15 and 0.13, for CLB30016, CL5741 and IHMA599644, respectively. These were further diluted 1:100 into 1.1× CAMHB and used to inoculate the test wells as described below.
(§4) Imipenem in 10 mM 3-(N-morpholino)propanesulfonic acid (MOPS, pH 7) was stored in single use aliquots at −80° C. […] On the day of the assay, 4 μl of antibiotic was added to 45 μl of bacteria followed by 1 μl of test compound and mixed by pipetting and with an orbital shaker. The concentration of antibiotic used in the assay was 1 μg/mL. Microplates were covered and incubated at 35° C. for 22 hours to 24 hours. At the end of the incubation, absorbance was determined using a spectrophotometer. The synergistic concentration of MBLI was determined by identifying the lowest concentration of test compound in the presence of a given concentration of antibiotic that was required to inhibit 95% of the growth of the bacteria. The results for Examples 1-209 are reported in Table 1, expressed as the concentration of compound that potentiated the action of antibiotic (imipenem) affecting 95% inhibition of bacterial growth (MITC95).

[2] = tested on: Klebsiella pneumoniae expressing VIM-1 (IHMA599644); test: as above; type: cell-based; conditions: imipenem 1 μg/mL; lowest concentration inhibiting 95% of growth; 35° C., 22-24 hours
Description: as §2, §3, §4

[3] = tested on: Serratia marcescens expressing IMP-1 (CL5741); test: as above; type: cell-based; conditions: imipenem 1 μg/mL; lowest concentration inhibiting 95% of growth; 35° C., 22-24 hours
Description: as §2, §3, §4

[4] = tested on: P. aeruginosa MB9798 (efflux WT, IMP-1); test: Efflux: concentration of MBL inhibitor restoring susceptibility to imipenem (MITC95), efflux+ strain; type: cell-based, Pseudomonas aeruginosa; conditions: imipenem at 2 μg/mL in the presence of a class A, C, D serine β-lactamase inhibitor closely related to relebactam
Text: (§5) In order to assess the contribution of efflux to lack of whole cell inhibition of metallo-beta-lactamase inhibitors of formula I, tool strains were constructed. The strain background is Pseudomonas aeruginosa PAO1. A wild-type (MB5919) and an isogenic strain in which multiple efflux pumps have been disrupted genetically were used. The MBL IMP-1, obtained from a clinical isolate was introduced into the strain pair by the following process:
(§6) Plasmid DNA (encoding IMP-1) was extracted from CL 5673 (IMP-1, P. aeruginosa clinical strain) by standard techniques. The plasmid DNA was transformed into parental MB5919 (oprD+, efflux+, inducible AmpC) and MB5890 (oprD+, efflux−, inducible AmpC) isogenic strains by electroporation. These transformed strains were plated onto cation-adjusted Muller-Hinton agar plates containing ceftazidime at 32 μg/mL (MB5919) and 16 μg/mL (MB5890) to select for those cells in which the IMP-1-expressing plasmid was introduced successfully, resulting in resistance to ceftazidime. Agarose-gel electrophoresis of PCR product for IMP-1 from the successful transformants was used to compare to control and to the original strain from which the plasmid was obtained, confirming transfer of the IMP-1 gene (data not shown).
(§7) The strain set was then used as a pair to determine the effect of metallo-β-lactamase inhibitors of Formula Ion the MIC of imipenem and/or ceftazidime. A fixed concentration of antibiotic is included in standard microbroth MIC tests, usually at the CLSI breakpoint concentration. A fixed amount of a class A/C beta-lactamase inhibitor is also included to inhibit the resident Pseudomonas AmpC enzyme. A serial titration of the metallo-β-lactamase inhibitor was included and the concentration of metallo-β-lactamase inhibitor which restores susceptibility of the strain to the included antibiotic was recorded. That concentration of metallo-β-lactamase inhibitor was then compared between the two strains to determine the fold difference between the efflux+(MB9798) and efflux−(MB9799) strains, which indicates n the extent to which the MBLi is subject to efflux.

[5] = tested on: P. aeruginosa MB9799 (efflux mutant, IMP-1); test: Efflux: concentration of MBL inhibitor restoring susceptibility to imipenem (MITC95), efflux− strain; type: cell-based, Pseudomonas aeruginosa; conditions: imipenem at 2 μg/mL in the presence of a class A, C, D serine β-lactamase inhibitor closely related to relebactam
Text: as §5, §6, §7

Chain of IMP-1 (P52699 19-246, looked up, species assumed): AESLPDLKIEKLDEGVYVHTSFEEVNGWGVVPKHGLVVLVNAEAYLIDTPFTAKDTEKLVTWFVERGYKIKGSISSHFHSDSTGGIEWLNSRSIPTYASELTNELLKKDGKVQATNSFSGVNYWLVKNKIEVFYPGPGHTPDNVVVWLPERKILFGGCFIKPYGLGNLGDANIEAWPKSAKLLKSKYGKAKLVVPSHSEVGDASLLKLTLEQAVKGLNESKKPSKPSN
Chain of NDM-1 (C7C422 29-270, looked up, species assumed): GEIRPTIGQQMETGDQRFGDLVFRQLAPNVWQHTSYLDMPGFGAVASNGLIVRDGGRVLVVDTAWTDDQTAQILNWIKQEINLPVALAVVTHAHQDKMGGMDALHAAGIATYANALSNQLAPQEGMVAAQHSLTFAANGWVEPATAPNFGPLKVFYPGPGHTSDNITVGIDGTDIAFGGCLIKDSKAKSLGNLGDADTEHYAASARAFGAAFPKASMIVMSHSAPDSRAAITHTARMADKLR

Compound	IC50 (NDM-1)	IC50 (IMP-1)	IC50 (VIM-1)	IC50 (VIM-2)	CLB30016 E.coli MITC95 NDM [1]	IHMA599644 K.pneumoniae MITC95 uM VIM [2]	CL5741 S.marcescens MITC95 uM IMP [3]	MB9798 MITC95 P. aeruginosa Efflux WT [4]	MB9799 MITC95 P. aeruginosa Efflux Mutant [5]
NS(=O)(=O)c1c(S(=O)(=O)N[C@@H]2CCNC2)ccc(N2CCn3ncnc3C2)c1-c1nn[nH]n1 [Example 1, (R)-4-(5,6-dihydro-[1,2,4]triazolo[1,5-a]pyrazin-7(8H)-yl)-N′-(pyrrolidin-3-yl)-3-(2H-tetrazol-5-yl)benzene-1,2-disulfonamide]	1.57 nM	4.03 nM	0.29 nM	0.99 nM	3.13 µM	6.25 µM	1.56 µM	6.25 µM	1.56 µM
Cc1cc2c(c(C)n1)CCN2c1ccc(S(=O)(=O)N[C@@H]2CCNC2)c(S(N)(=O)=O)c1-c1nnn[nH]1 [Example 27, 4-(4,6-dimethyl-2,3-dihydro-1H-pyrrolo[3,2-c]pyridin-1-yl)-N1-[(3R)-pyrrolidin-3-yl]-3-(1H-tetrazol-5-yl)benzene-1,2-disulfonamide]	5 nM	84 nM	0.14 nM	1.37 nM	1.56 µM	3.13 µM	6.25 µM	50.00 µM	3.13 µM
NC[C@@H](O)CNS(=O)(=O)c1ccc(N2CCn3ccnc32)c(-c2nnn[nH]2)c1S(N)(=O)=O [Example 19, (R)—N1-(3-amino-2-hydroxypropyl)-4-(2,3-dihydro-1H-imidazo[1,2-a]imidazol-1-yl)-3-(1H-tetrazol-5-yl)benzene-1,2-disulfonamide]	1.03 nM	12.1 nM	5.96 nM	9.8 nM	0.20 µM	3.13 µM	0.78 µM	6.25 µM	1.56 µM
NS(=O)(=O)c1c(S(=O)(=O)N[C@@H]2CCNC2)ccc(N2Cc3cccnc3C2)c1-c1nnn[nH]1 [Example 22, 4-(5,7-dihydro-6H-pyrrolo[3,4-b]pyridin-6-yl)-N1-[(3R)-pyrrolidin-3-yl]-3-(1H-tetrazol-5-yl)benzene-1,2-disulfonamide]	0.62 nM	0.17 nM	0.59 nM	2.31 nM	0.78 µM	6.25 µM	3.13 µM	3.13 µM	1.56 µM
NCCNS(=O)(=O)c1ccc(N2CCCn3ccnc32)c(-c2nn[nH]n2)c1S(N)(=O)=O [Example 12, N1-(2-aminoethyl)-4-(6,7-dihydroimidazo[1,2-a]pyrimidin-8(5H)-yl)-3-(2H-tetrazol-5-yl)benzene-1,2-disulfonamide]	1.58 nM	4.69 nM	0.6 nM	2.17 nM	0.05 µM	0.39 µM	0.20 µM	0.78 µM	0.20 µM
NCC(CN)NS(=O)(=O)c1ccc(N2CCn3ccnc3C2)c(-c2nn[nH]n2)c1S(N)(=O)=O [Example 10, N1-(1,3-diaminopropan-2-yl)-4-(5,6-dihydroimidazo[1,2-a]pyrazin-7(8H)-yl)-3-(2H-tetrazol-5-yl)benzene-1,2-disulfonamide]	1.17 nM	2.96 nM	0.25 nM	0.99 nM	0.10 µM	1.56 µM	0.39 µM	3.13 µM	1.56 µM
NS(=O)(=O)c1c(S(=O)(=O)N[C@@H]2CCNC2)ccc(N2CCCn3cnnc32)c1-c1nn[nH]n1 [Example 6, (R)-4-(6,7-dihydro-[1,2,4]triazolo[4,3-a]pyrimidin-8(5H)-yl)-N^1-(pyrrolidin-3-yl)-3-(2H-tetrazol-5-yl)benzene-1,2-disulfonamide]	0.72 nM	6.8 nM	0.24 nM	1.13 nM	0.78 µM	6.25 µM	3.13 µM	3.13 µM	3.13 µM
NC[C@H](O)CNS(=O)(=O)c1ccc(N2CCCn3ccnc32)c(-c2nnn[nH]2)c1S(N)(=O)=O [Example 18, (S)-N1-(3-amino-2-hydroxypropyl)-4-(6,7-dihydroimidazo[1,2-a]pyrimidin-8(5H)-yl)-3-(1H-tetrazol-5-yl)benzene-1,2-disulfonamide]	1.87 nM	8.07 nM	0.76 nM	1.99 nM	0.10 µM	1.56 µM	0.39 µM	3.13 µM	0.78 µM
NS(=O)(=O)c1c(S(=O)(=O)N[C@@H]2CCNC2)ccc(N2CCc3[nH]cnc3C2)c1-c1nnn[nH]1 [Example 31, N1-[(3R)-pyrrolidin-3-yl]-4-(1,4,6,7-tetrahydro-5H-imidazo[4,5-c]pyridin-5-yl)-3-(1H-tetrazol-5-yl)benzene-1,2-disulfonamide]	1.13 nM	7 nM	0.59 nM	3.3 nM	0.20 µM	3.13 µM	0.78 µM	3.13 µM	0.78 µM
